From patent US7186743B2, “Substituted pyrazolyl compounds for the treatment of inflammation” (Pharmacia Corporation, priority 2001, dated 2007)
Counter-ions that a name gives are not always drawn. Like-named read-outs stand apart in the source and are kept apart here. Values belong to the molecule of their own block, whether it stands above or below them.

Target: T1, IKK2 (Homo sapiens, UniProt O14920)
T1 construct: made in house; host or cells: insect cells (baculovirus, pFastBac; SF9)
T1 sequence (O14920 1-756): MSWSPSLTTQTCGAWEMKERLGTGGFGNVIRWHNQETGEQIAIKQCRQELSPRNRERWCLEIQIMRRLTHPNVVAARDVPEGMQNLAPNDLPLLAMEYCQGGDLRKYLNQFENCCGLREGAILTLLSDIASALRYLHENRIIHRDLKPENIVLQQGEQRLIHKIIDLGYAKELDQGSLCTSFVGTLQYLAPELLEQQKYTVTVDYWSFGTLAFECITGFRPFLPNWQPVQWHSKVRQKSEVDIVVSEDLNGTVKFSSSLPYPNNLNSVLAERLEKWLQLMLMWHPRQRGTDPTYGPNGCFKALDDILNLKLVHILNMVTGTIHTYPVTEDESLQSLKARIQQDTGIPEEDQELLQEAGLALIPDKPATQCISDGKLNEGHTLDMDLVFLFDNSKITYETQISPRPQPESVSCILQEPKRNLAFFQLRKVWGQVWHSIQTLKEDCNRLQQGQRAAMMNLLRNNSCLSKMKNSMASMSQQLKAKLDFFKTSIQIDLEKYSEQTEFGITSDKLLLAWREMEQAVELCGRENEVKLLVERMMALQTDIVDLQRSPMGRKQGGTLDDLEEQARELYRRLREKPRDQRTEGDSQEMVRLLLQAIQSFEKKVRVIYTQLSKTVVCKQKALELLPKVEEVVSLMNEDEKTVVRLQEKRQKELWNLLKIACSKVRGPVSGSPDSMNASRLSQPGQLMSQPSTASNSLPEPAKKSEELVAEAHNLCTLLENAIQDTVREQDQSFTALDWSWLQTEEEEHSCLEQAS
Experiment: IKKβ Resin Enzyme Assay (IKK2 resin)
Type: biochemical
Procedure, shortened: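 Enzyme: human IKK2 with a C-terminal FLAG tag, baculovirus-expressed, purified as homodimer on anti-FLAG resin. It phosphorylates a biotinylated IκBα peptide with 1 μM ATP plus [γ-33P]ATP in 25 mM Hepes pH 7.6, Mg/Mn, for 30 min at 25° C. Incorporation is counted by scintillation after anion-exchange resin stop.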

[1] = Table 4, read-out: IKK2 Resin IC50
[2] = Table 8, read-out: IKK2 Resin IC50
[3] = Table 14, read-out: IKK2 Resin IC50
[4] = Table 23, read-out: IKK2 Resin IC50
[5] = Table 6, read-out: IKK2 Resin IC 50
[6] = Table 11, read-out: IKK2 Resin IC50

Compound: NC(=O)c1nn(-c2ccc3c(c2)OCO3)c2c1CCc1ccc(NC(=O)c3ccccc3Cl)cc1-2 [Example 165, 1-(1,3-benzodioxol-5-yl)-8-[(2-chlorobenzoyl)amino]-4,5-dihydro-1H-benzo[g]indazole-3-carboxamide]
IC50 [1]: ≤ 1 µM

Compound: NC(=O)c1nn(-c2ccc(OCc3ccccc3)cc2)c2c1CCc1ccc(NC(=O)c3ccccc3Cl)cc1-2 [Example 259, 1-[4-(benzyloxy)phenyl]-8-[(2-chlorobenzoyl)amino]-4,5-dihydro-1H-benzo[g]indazole-3-carboxamide]
IC50 [2]: > 10 µM

Compound: CSc1ccc(-n2nc(C(N)=O)c3c2-c2cc(NC(=O)c4cc5c(cc4Cl)OCO5)ccc2CC3)cc1 [Example 413, 8-{[(6-chloro-1,3-benzodioxol-5-yl)carbonyl]amino}-1-[4-(methylthio)phenyl]-4,5-dihydro-1H-benzo[g]indazole-3-carboxamide]
IC50 (Table 19, read-out: IKK2 Resin IC50): ≤ 1 µM

Compound: NC(=O)c1nn(-c2ccccc2)c2c1CCc1ccc(NC(=O)c3ccccc3Cl)cc1-2 [Example 328, 8-[(2-chlorobenzoyl)amino]-1-phenyl-4,5-dihydro-1H-benzo[g]indazole-3-carboxamide]
IC50 [3]: ≤ 1 µM

Compound: NC(=O)c1nn(-c2ccc3c(c2)OCO3)c2c1CCc1ccc(NC(=O)c3ccc([N+](=O)[O-])cc3Cl)cc1-2 [Example 184, 1-(1,3-benzodiaxol-5-yl)-8-[(2-chloro-4-nitrobenzoyl)amino]-4,5-dihydro-1H-benzo[g]indazole-3-carboxamide]
IC50 [1]: ≤ 1 µM

Compound: NC(=O)c1nn(-c2ccc3c(c2)OCO3)c2c1CCc1ccc(NC(=O)c3ccc(N)cc3Cl)cc1-2 [Example 180, 8-[(4-amino-2-chlorobenzoyl)amino]-1-(1,3-benzodioxol-5-yl)-4,5-dihydro-1H-benzo[g]indazole-3-carboxamide]
IC50 [1]: ≤ 1 µM

Compound: NC(=O)c1nn(-c2ccc(N)cc2)c2c1CCc1ccc(NC(=O)c3ccccc3Cl)cc1-2 [Example 370, 1-(4-aminophenyl)-8-[(2-chlorobenzoyl)amino]-4,5-dihydro-1H-benzo[g]indazole-3-carboxamide]
IC50 (Table 15, read-out: IKK2 Resin IC50): ≤ 1 µM

Compound: NC(=O)c1nn(-c2ccc3c(c2)OCO3)c2c1CCc1ccc(NC(=O)c3ccc(C(F)(F)F)nc3Cl)cc1-2 [Example 181, 1-(1,3-benzodioxol-5-yl)-8-({[2-chloro-6-(trifluoromethyl)pyridin-3-yl]carbonyl}amino)-4,5-dihydro-1H-benzo[g]indazole-3-carboxamide]
IC50 [1]: ≤ 1 µM

Compound: CC(C)NCC(=O)Nc1ccc2c(c1)-c1c(c(C(N)=O)nn1-c1ccc3c(c1)OCO3)CC2 [Example 444, 1-(1,3-benzodioxol-5-yl)-8-[(N-isopropylglycyl)amino]-4,5-dihydro-1H-benzo[g]indazole-3-carboxamide]
IC50 [4]: ≤ 1 µM

Compound: CS(=O)(=O)c1ccc(-n2nc(C(N)=O)c3c2-c2cc(NC(=O)c4ccccc4Cl)ccc2CC3)cc1 [Example 95, 8-[(2-chlorobenzoyl)animo]-1-[4-(methylsulfonyl)phenyl]-4,5-dihydro-1H-benzo[g]indazole-3-carboxamide]
IC50 (Table 2, read-out: IKK Resin IC50): ≤ 1 µM

Compound: COc1ccc(C(=O)Nc2ccc3c(c2)-c2c(c(C(N)=O)nn2-c2cccc(O)c2)CC3)c(Cl)c1 [Example 283, 8-[(2-chloro-4-methoxybenzoyl)ammo]-1-(3-hydroxyphenyl)-4,5-dihydro-1H-benzo[g]indazole-3-carboxamide]
IC50 (Table 10, read-out: IKK2 Resin IC50): ≤ 1 µM

Compound: NC(=O)c1nn(-c2ccc(F)c(F)c2)c2c1CCc1ccc(NC(=O)c3ccncc3Cl)cc1-2 [Example 354, 8-[(3-chloroisonicotinoyl)amino]-1-(3,4-difluorophenyl)-4,5-dihydro-1H-benzo[g]indazole-3-carboxamide]
IC50 [3]: ≤ 1 µM

Compound: NC(=O)c1nn(-c2ccc(F)cc2)c2c1CCc1ccc(NC(=O)c3cc(N4CCNCC4)ncc3Cl)cc1-2 [Example 253, 8-[(5-chloro-2-piperazin-1-ylisonicotinoyl)amino]-1-(4-fluorophenyl)-4,5-dihydro-1H-benzo[g]indazole-3-carboxamide]
IC50 (Table 7, read-out: IKK2 Resin IC50): ≤ 1 µM

Compound: NC(=O)c1nn(-c2ccc3c(c2)OCO3)c2c1CCc1ccc(NC(=O)c3ccccc3[N+](=O)[O-])cc1-2 [Example 192, 1-(1,3-benzodioxol-5-yl)-8-[(2-nitrobenzoyl)amino]-4,5-dihydro-1H-benzo[g]indazole-3-carboxamide]
IC50 [1]: ≤ 1 µM

Compound: NC(=O)c1nn(-c2ccc(F)cc2)c2c1CCc1ccc(NC(=O)c3cccnc3Cl)cc1-2 [Example 225, 8-{[(2-chloropyridin-3-yl)carbonyl]amino}-1-(4-fluorophenyl)-4,5-dihydro-1H-benzo[g]indazole-3-carboxamide]
IC50 [5]: ≤ 1 µM

Compound: NC(=O)c1nn(-c2ccc3c(c2)OCO3)c2c1CCc1ccc(NC(=O)c3cc(Cl)ccc3Cl)cc1-2 [Example 189, 1-(1,3-benzodioxol-5-yl)-8-[(2,5-dichlorobenzoyl)amino]-4,5-dihydro-1H-benzo[g]indazole-3-carboxamide]
IC50 [1]: ≤ 1 µM

Compound: NC(=O)c1nn(-c2ccc3c(c2)OCO3)c2c1CCc1ccc(NC(=O)c3cc(F)c(F)cc3Cl)cc1-2 [Example 166, 1-(1,3-benzodioxol-5-yl)-8-[(2-chloro-4,5-difluorobenzoyl)amino]-4,5-dihydro-1H-benzo[g]indazole-3-carboxamide]
IC50 [1]: ≤ 1 µM

Compound: Cc1c(O)cccc1C(=O)Nc1ccc2c(c1)-c1c(c(C(N)=O)nn1-c1ccc3c(c1)OCO3)CC2 [Example 198, 1-(1,3-benzodioxol-5-yl)-8-[(3-hydroxy-2-methylbenzoyl)amino]-4,5-dihydro-1H-benzo[g]indazole-3-carboxamide]
IC50 [1]: ≤ 1 µM

Compound: NC(=O)c1nn(-c2ccc(F)cc2)c2c1CCc1ccc(NC(=O)CNC3CCC3)cc1-2 [Example 452, 8-[(N-cyclobutylglycyl)amino]-1-(4-fluorophenyl)-4,5-dihydro-1H-benzo[g]indazole-3-carboxamide]
IC50 [4]: ≤ 1 µM

Compound: NC(=O)c1nn(-c2ccc(F)c(Cl)c2)c2c1CCc1ccc(NC(=O)c3ccccc3Cl)cc1-2 [Example 356, 8-[(2-chlorobenzoyl)amino]-1-(3-chloro-4-fluorophenyl)-4,5-dihydro-1H-benzo[g]indazole-3-carboxamide]
IC50 [3]: ≤ 1 µM

IC50 (read-out: IKK-2 resin IC50): ≤ 1 µM
Compound: N#Cc1ccc(-n2nc(C(N)=O)c3c2-c2cc(NC(=O)c4ccccc4Cl)ccc2CC3)cc1 [Example 369, 8-[(2-chlorobenzoyl)amino]-1-(4-cyanophenyl)-4,5-dihydro-1H-benzo[g]indazole-3-carboxamide]

Compound: CC(=O)CCc1ccc(-n2nc(C(N)=O)c3c2-c2cc(NC(=O)c4cccnc4Cl)ccc2CC3)cc1 [Example 302, 8-{[(2-chloropyridin-3-yl)carbonyl]amino}-1-[4-(3-oxobutyl)phenyl]-4,5-dihydro-1H-benzo[g]indazole-3-carboxamide]
IC50 [6]: ≤ 1 µM

Compound: NC(=O)c1nn(-c2ccc(CCC(=O)CO)cc2)c2c1CCc1ccc(NC(=O)c3ccccc3Cl)cc1-2 [Example 299, 8-[(2-chlorobenzoyl)amino]-1-[4-(4-hydroxy-3-oxobutyl)phenyl]-4,5-dihydro-1H-benzo[g]indazole-3-carboxamide]
IC50 [6]: ≤ 1 µM

Compound: NC(=O)c1nn(-c2cccc(O)c2)c2c1CCc1ccc(NC(=O)c3ccccc3Cl)cc1-2 [Example 262, 8-[(2-chlorobenzoyl)amino]-1-(3-hydroxyphenyl)-4,5-dihydro-1H-benzo[g]indazole-3-carboxamide]
IC50 [2]: ≤ 1 µM

Compound: CS(=O)(=O)c1ccc(-n2nc(C(N)=O)c3c2-c2cc(NC(=O)c4cc(F)ccc4[N+](=O)[O-])ccc2CC3)cc1 [Example 151, 8-[(5-fluoro-2-nitrobenzoyl)amino]-1-[4-(methylsulfonyl)phenyl]-4,5-dihydro-1H-benzo[g]indazole-3-carboxamide]
IC50 (Table 3, read-out: IKK Resin IC50): ≤ 1 µM

Compound: Cc1ccncc1C(=O)Nc1ccc2c(c1)-c1c(c(C(N)=O)nn1-c1ccc3c(c1)OCO3)CC2 [Example 187, 1-(1,3-benzodioxol-5-yl)-8-{[(4-methylpyridin-3-yl)carbonyl]amino}-4,5-dihydro-1H-benzo[g]indazole-3-carboxamide]
IC50 [1]: ≤ 1 µM

Compound: NC(=O)c1nn(-c2ccc(F)cc2)c2c1CCc1ccc(NC(=O)c3cc(N)ccc3Cl)cc1-2 [Example 236, 8-[(5-amino-2-chlorobenzoyl)amino]-1-(4-fluorophenyl)-4,5-dibydro-1H-benzo[g]indazole-3-carboxamide]
IC50 [5]: ≤ 1 µM

Compound: NC(=O)c1nn(-c2ccc(F)cc2)c2c1CCc1ccc(NC(=O)c3ccncc3Cl)cc1-2 [Example 228, 8-[(3-chloroisonicotinoyl)amino]1-(4-fluorophenyl)-4,5-dihydro-1H-benzo[g]indazole-3-carboxamide hydrochloride]
IC50 [5]: ≤ 1 µM
